One experiment concerns the target T1, RORγt (Homo sapiens, UniProt P51449).
T1 construct: The resulting GAL4-RORγt-LBD fusion construct was placed under the control of a constitutive cytomegalovirus (CMV) promoter; expressed in transfected cells; host or cells: HEK293
T1 sequence (P51449 269-508 limits assumed): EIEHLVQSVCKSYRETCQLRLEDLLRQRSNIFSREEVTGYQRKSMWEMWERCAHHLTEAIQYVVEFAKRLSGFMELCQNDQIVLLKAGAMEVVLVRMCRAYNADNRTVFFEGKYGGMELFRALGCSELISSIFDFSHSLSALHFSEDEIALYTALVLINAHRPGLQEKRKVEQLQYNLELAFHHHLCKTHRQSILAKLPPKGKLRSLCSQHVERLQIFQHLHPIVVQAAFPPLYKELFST
Put plainly: RORγ Reporter Assay (GAL4-UAS luciferase reporter in HEK293 cells). Format: cell-based. The note with it: benzoxazines, Table 9; HEK cells. How it is done:
Inhibition of RORγt in cells was determined using a GAL4-UAS reporter system in HEK293 cells employing a luciferase readout. The RORγt DNA binding domain (DBD) was replaced with the heterologous yeast GAL4 DBD using standard recombinant DNA methods. The resulting GAL4-RORγt-LBD fusion construct was placed under the control of a constitutive cytomegalovirus (CMV) promoter by cloning it into the CMV-driven mammalian expression vector pcDNA3.1+− (Promega Corporation, Madison, Wis.).
A transcriptional reporter expression construct was used to monitor GAL4-RORγ activity, which contained five copies of the GAL4 binding site enhancer (UAS) controlling expression of a firefly luciferase reporter. This construct, pGL4.31, is commercially available from Promega Corporation, Madison Wis. Both expression constructs were transfected in bulk into HEK-293 cells using standard lipid-based transfection techniques, which allowed the GAL4 RORγ-LBD fusion protein to drive expression of the luciferase reporter. Control transfections were performed with an empty pCDN3.1+ vector.
The next day, cells were plated into 384 well plates, test compound was added, and the plates were incubated overnight. […] Promega firefly assays kits were used to stabilize the luciferase signal, and the intensity of the luciferase signal was measured using an EnVision Multilabel Plate Reader (Perkin Elmer, Waltham, Mass.).
HEK 293 cells are transfected with GAL4-NR construct (CMV:NR-LBD in pcDNA3.1neo) and the pGL4.31 GAL4-luciferase reporter construct (Promega). For a background control, use empty pcDNA3.1neo and pGL4.31. Transfection protocol is for a single T75 flask performed with Minis Trans-It 293 reagent. A 60 μL aliquot of Trans-IT reagent at room temperature is added drop wise to 1.5 mL of Optimem (Invitrogen). The resulting solution is mixed by inversion and incubated for 5-20 minutes at room temperature. This reagent mixture is added to 10 μg of DNA (5 μg of each expression vector used at a concentration of 1 mg/mL). The solution is mixed by inversion and incubated at room temperature for 20 minutes.
While the Trans-IT reagent and DNA are incubating, harvest HEK-293 cells. Remove media from flasks via aspiration and add enough TrypLE Express (stable Trypsin-like reagent, Invitrogen) to cover the bottom of the flask. The mixture is incubated at room temperature until the cells are visibly loose in the flask (approximately 2-5 minutes). Add an equal volume of complete growth media, and then pipette to achieve a single cell suspension. Spin down 1×10^7 cells and re-suspend the cells in 10 mL of complete growth media (DMEM high glucose/10% dialyzed FBS/pen/strep; Invitrogen). The cells and transfection mixture are added to one T75 flask. The contents of the T75 flax are mixed and incubated overnight at 37° C. and 5% CO2.
After 16-24 hours, cells are harvested and plated for test compound screening. Cells may be harvested as described above. Next, cells are counted and an appropriate number of cells are spun down. Then, cells are aspirated and re-suspended in complete growth media at a concentration of 0.5×10^6 cells/mL to provide a cell suspension. Plate 20 μL of the cell suspension into a white, tissue-culture treated 384 well plate. (10,000 cells/well).
A 10 mM stock solution of test compound in dimethylsulfoxide (DMSO) was diluted to 500× the final test concentration in DMSO, then diluted to 5× the final test concentration with complete growth medium to provide the Test Compound Solution. The concentration of DMSO in the Test Compound Solution was […]. A 5 μL aliquot of Test Compound Solution was added to each test well in the 384 well plate previously plated with the cell suspension. Next, plates are spun briefly and incubated overnight at 37° C. and 5% CO2.
After 16-24 hours, the luciferase assay is performed. Plates and luciferase reagent (e.g. One-Glo® or Dual Glo®; Promega, Madison, Wis.) are brought to room temperature.

A further experiment has as its target T2, RORγ-LBD (Homo sapiens, UniProt P51449).
T2 construct: HIS-tagged RORγ-LBD was recombinantly expressed in SF9 cells; made in house; host or cells: SF9 cells (baculovirus); unpurified lysate
T2 sequence (P51449 269-508 limits assumed): T1 sequence (P51449 269-508 limits assumed)
Nature of the experiment: RORγ-Ligand Binding Domain TR-FRET Assay. Conditions: benzoxazines, Table 9. The class given is biochemical. In short, it runs like this: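 Unpurified His-tagged LBD in Sf9 lysate (~10 nM final) in 25 mM HEPES pH 7.0, 100 mM NaCl, 0.01% Tween, 0.1% BSA, with biotinylated SRC1-2 LXXLL peptide (450 nM), Eu anti-His (2 nM) and streptavidin-APC (60 nM). Incubated 4 h to overnight; IC50 from 665/615 nm TR-FRET ratio.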
A general note: Time-resolved FRET reads energy transfer from a long-lived donor to a nearby acceptor.

By IC50 is commonly meant the concentration that gives 50% inhibition. Higher therefore signals weaker potency in that assay. `O=C(Nc1ccc2c(c1)N(S(=O)(=O)c1ccc(Cl)cc1)C[C@@H](CO)O2)c1c(Cl)cccc1Cl` [VI-52]: the half-inhibitory concentration (IC50) at RORγt and on RORγ-LBD was less than 15 µM each time.

Consider `Cc1cccc(F)c1C(=O)Nc1ccc2c(c1)N(S(=O)(=O)c1ccc(F)cc1)C[C@H](CO)O2` [VI-44], for which the IC50 at RORγt and on RORγ-LBD was less than 15 µM each time.

Take `O=C(Nc1ccc2c(c1)N(S(=O)(=O)c1ccc(F)cc1)CC(CC(F)(F)F)O2)c1c(F)cccc1C(F)(F)F` (centres unmarked) [VI-14]: the concentration for half-maximal inhibition (IC50) at RORγt and on RORγ-LBD was less than 15 µM each time.

`N#Cc1cccc(S(=O)(=O)N2C[C@H](CO)Oc3ccc(NC(=O)c4c(Cl)cccc4Cl)cc32)c1` [VI-63]: the IC50 at RORγt and at RORγ-LBD was less than 15 µM in each case.

On to `COCC1CN(S(=O)(=O)c2ccc(Cl)cc2)c2cc(NC(=O)c3c(F)cccc3F)ccc2O1` (centres unmarked) [VI-97], for which the IC50 on RORγt and on RORγ-LBD was less than 15 µM throughout.

Turning to `CCOCC1CN(S(=O)(=O)c2ccc(F)cc2)c2cc(NC(=O)c3c(Cl)cccc3Cl)ccc2O1` (centres unmarked) [VI-108], the IC50 against RORγt and at RORγ-LBD was less than 15 µM each time.

Turning to `O=C(Nc1ccc2c(c1)N(S(=O)(=O)c1ccc(Cl)cc1)C[C@H](CO)O2)c1c(Cl)cccc1Cl` [VI-85], the IC50 against RORγt and on RORγ-LBD was less than 15 µM throughout.

`O=C(Nc1ccc2c(c1)N(S(=O)(=O)c1ccc(F)cc1)C[C@H](CO)O2)c1c(F)cccc1Cl` [VI-120]: the IC50 against RORγt and on RORγ-LBD was less than 15 µM in each case.

Consider `O=C(Nc1ccc2c(c1)N(S(=O)(=O)c1ccc(F)cc1)C[C@@H](CO)O2)c1c(F)cccc1Cl` [VI-116], for which the IC50 on RORγt and at RORγ-LBD was less than 15 µM in each case.

As to `N#Cc1cccc(S(=O)(=O)N2C[C@H](CO)Oc3ccc(NC(=O)c4c(F)cccc4Cl)cc32)c1` [Compound 20, (R)-2-Chloro-N-(4-((3-cyanophenyl)sulfonyl)-2-(hydroxymethyl)-3,4-dihydro-2H-benzo[b][1,4]oxazin-6-yl)-6-fluorobenzamide], the IC50 on RORγt and at RORγ-LBD was less than 15 µM each time.

In the case of `O=C(Nc1ccc2c(c1)N(S(=O)(=O)c1ccc(F)cc1)CC(CN(CC1CC1)CC1CC1)O2)c1c(F)cccc1Cl` (centres unmarked) [VI-37], the IC50 on RORγt and on RORγ-LBD was less than 15 µM throughout.

`O=C(Nc1ccc2c(c1)N(S(=O)(=O)c1ccc(Cl)cc1)C[C@H](CO)O2)c1c(F)cccc1F` [VI-87]: the IC50 at RORγt and at RORγ-LBD was less than 15 µM in each case.

With `CC1(C)CN(S(=O)(=O)c2ccc(F)cc2)c2cc(NC(=O)c3c(Cl)cccc3Cl)ccc2O1` [VI-125], the half-maximal inhibitory concentration (IC50) against RORγt and on RORγ-LBD was less than 15 µM in each case.

On to `CCOCC1CN(S(=O)(=O)c2ccc(F)c(F)c2)c2cc(NC(=O)c3c(Cl)cccc3C(F)(F)F)ccc2O1` (centres unmarked) [VI-88], for which the IC50 on RORγt and on RORγ-LBD was less than 15 µM throughout.

For the compound `C[C@H]1CN(S(=O)(=O)c2ccc(F)cc2)c2cc(NC(=O)c3c(F)cccc3Cl)ccc2O1` [VI-1], the half-inhibitory concentration (IC50) on RORγt and on RORγ-LBD was less than 15 µM throughout.

In the case of `O=C(Nc1ccc2c(c1)N(S(=O)(=O)c1ccc(F)cc1)CC(CC(F)(F)F)O2)c1c(Cl)cccc1C(F)(F)F` (centres unmarked) [VI-15], the concentration for half-maximal inhibition (IC50) against RORγt and on RORγ-LBD was less than 15 µM each time.

`CCOCC1CN(S(=O)(=O)c2ccc(Cl)cc2)c2cc(NC(=O)c3c(F)cccc3F)ccc2O1` (centres unmarked) [VI-94]: the IC50 against RORγt and at RORγ-LBD was less than 15 µM in each case.

As for `Cc1nn(C(F)F)cc1S(=O)(=O)N1C[C@H](C)Oc2ccc(NC(=O)c3c(F)cccc3C(F)(F)F)cc21` [VI-10], the half-maximal inhibitory concentration (IC50) on RORγt and at RORγ-LBD was less than 15 µM each time.

With `O=C(Nc1ccc2c(c1)N(S(=O)(=O)c1ccc(F)c(F)c1)C[C@@H](CO)O2)c1c(Cl)cccc1Cl` [VI-73], the IC50 on RORγt and at RORγ-LBD was less than 15 µM throughout.

Regarding `COc1ccc(S(=O)(=O)N2C[C@H](CO)Oc3ccc(NC(=O)c4c(F)cccc4Cl)cc32)cn1` [VI-28], the half-maximal inhibitory concentration (IC50) on RORγt and at RORγ-LBD was less than 15 µM each time.

Take `O=C(Nc1ccc2c(c1)N(S(=O)(=O)c1ccc(F)cc1)C[C@H](CF)O2)c1c(F)cccc1Cl` [Compound 22, (R)-2-Chloro-6-fluoro-N-(2-(fluoromethyl)-4-((4-fluorophenyl)sulfonyl)-3,4-dihydro-2H-benzo[b][1,4]oxazin-6-yl)benzamide]: the IC50 on RORγt and at RORγ-LBD was less than 15 µM each time.

Regarding `O=C(Nc1ccc2c(c1)N(S(=O)(=O)c1ccc(F)c(F)c1)C[C@@H](CO)O2)c1c(F)cccc1Cl` [VI-75], the 50% inhibitory concentration (IC50) at RORγt and on RORγ-LBD was less than 15 µM throughout.

With `COCC1CN(S(=O)(=O)c2cccc(C#N)c2)c2cc(NC(=O)c3c(F)cccc3F)ccc2O1` (centres unmarked) [VI-103], the IC50 at RORγt and at RORγ-LBD was less than 15 µM in each case.

Take `COCC1CN(S(=O)(=O)c2ccc(F)cc2)c2cc(NC(=O)c3c(Cl)cccc3Cl)ccc2O1` (centres unmarked) [VI-105]: the IC50 against RORγt and at RORγ-LBD was less than 15 µM each time.

In the case of `O=C(Nc1cc2c(cc1F)O[C@@H](CO)CN2S(=O)(=O)c1ccc(F)cc1)c1c(Cl)cccc1C(F)(F)F` [VI-41], the IC50 against RORγt and on RORγ-LBD was less than 15 µM each time.

Take `CCOCC1CN(S(=O)(=O)c2ccc(F)cc2)c2cc(NC(=O)c3c(F)cccc3Cl)ccc2O1` (centres unmarked) [VI-118]: the IC50 at RORγt and at RORγ-LBD was less than 15 µM throughout.

Take `Cc1cccc(Cl)c1C(=O)Nc1ccc2c(c1)N(S(=O)(=O)c1ccc(F)cc1)C[C@H](CO)O2` [VI-48]: the 50% inhibitory concentration (IC50) against RORγt and at RORγ-LBD was less than 15 µM in each case.

As for `O=C(Nc1ccc2c(c1)N(S(=O)(=O)c1ccc(Cl)cc1)C[C@H](CO)O2)c1c(F)cccc1Cl` [VI-86], the IC50 against RORγt and on RORγ-LBD was less than 15 µM in each case.

Regarding `COCC1CN(S(=O)(=O)c2ccc(F)c(F)c2)c2cc(NC(=O)c3c(Cl)cccc3Cl)ccc2O1` (centres unmarked) [VI-70], the IC50 at RORγt and at RORγ-LBD was less than 15 µM throughout.

For `CCOCC1CN(S(=O)(=O)c2ccc(Cl)cc2)c2cc(NC(=O)c3c(Cl)cccc3C(F)(F)F)ccc2O1` (centres unmarked) [VI-90], the IC50 on RORγt and on RORγ-LBD was less than 15 µM each time.

For the compound `CCOCC1CN(S(=O)(=O)c2ccc(Cl)cc2)c2cc(NC(=O)c3c(Cl)cccc3Cl)ccc2O1` (centres unmarked) [VI-92], the IC50 on RORγt and on RORγ-LBD was less than 15 µM throughout.

Consider `O=C(Nc1ccc2c(c1)N(S(=O)(=O)c1ccc(F)c(F)c1)C[C@@H](CO)O2)c1c(F)cccc1F` [VI-76], for which the half-maximal inhibitory concentration (IC50) against RORγt and on RORγ-LBD was less than 15 µM throughout.

In the case of `CCOCC1CN(S(=O)(=O)c2ccc(F)c(F)c2)c2cc(NC(=O)c3c(Cl)cccc3Cl)ccc2O1` (centres unmarked) [VI-98], the IC50 on RORγt and at RORγ-LBD was less than 15 µM throughout.

`COCC1CN(S(=O)(=O)c2ccc(Cl)cc2)c2cc(NC(=O)c3c(Cl)cccc3C(F)(F)F)ccc2O1` (centres unmarked) [VI-91]: the IC50 against RORγt and at RORγ-LBD was less than 15 µM in each case.
